From patent EP3785696A1, “COSMETIC USE OF AROMATIC FORMAMIDINE DERIVATIVES” (B.R.A.I.N. Biotechnology Research And Information Network AG, priority 2019, dated 2021) come the findings set out here.

Type in all cases: cell-based
One assay addresses T1, MC2-R (Homo sapiens, UniProt Q01718).
T1 construct: MC2-R cDNA expression results in MC2-R protein NP_000520.1; expressed in transfected cells; host or cells: HEK293/Gα15 cells
Nature of the assay: Determination of compound activity on MC2-R (antagonist testing, Fluo-4 Ca2+ fluorescence in HEK293/Gα15 cells with MC2-R and MRAP). The note with it: Figure 2; 25 µM, added 10 min prior addition of ACTH (EC80). An excerpt:
HEK293 cells stably expressing the target receptor MC2-R, the accessory protein MRAP and the promiscuous murine Gα15 protein were established on basis of the above-mentioned HEK293/Gα15 cell line. These cells were further transfected with an expression vector comprising human MC2-receptor and additional MRAP (MC2-Receptor Accessory Protein) cDNA. MC2-R cDNA expression results in MC2-R protein NP_000520.1, MRAP cDNA expression results in MRAP protein NP_848932.1.
Stimulation of MC2-R with ACTH (adrenocorticotropic hormone) increases intracellular Ca^2+-concentration, inhibition of MC2-R decreases these ACTH induced Ca^2+-responses. Changes in intracellular Ca^2+-levels were measured via the Ca^2+-sensitive fluorescent dye Fluo-4 in a fluorescent plate reader.
For antagonist-testing, test compound was added to cells with a final concentration of 25 µM 10 min prior addition of ACTH (EC80). The threshold for antagonistic activity was defined in this experiment as 70% of the positive control ACTH (the EC80 value is set as 100%), and the assay was accepted as valid if the standard deviation of the ACTH signal is 10% or less.

Another assay concerns the target T2, MC4-R (Homo sapiens, UniProt P32245).
T2 construct: MC4-R cDNA expression results in MC4-R protein NP_005903.2; expressed in transfected cells; host or cells: HEK293/Gα15 cells
The assay is described as follows: Determination of compound activity on MC4-R (antagonist testing, Fluo-4 Ca2+ fluorescence in HEK293/Gα15 cells). The note with it: Figure 2; 25 µM, added 10 min prior stimulation with αMSH (EC80). An excerpt: HEK293 cells stably expressing the target receptor MC4-R and the promiscuous murine Gα15 protein were established on basis of the above-mentioned HEK293/Gα15 cell line. These cells were further transfected with an expression vector comprising the human MC4-receptor cDNA. MC4-R cDNA expression results in MC4-R protein NP_005903.2.
Stimulation of MC4-R with αMSH increases intracellular Ca^2+-concentration, inhibition of MC4-R decreases these αMSH induced Ca^2+-responses. Changes in intracellular Ca^2+-levels were measured via the Ca^2+-sensitive fluorescent dye Fluo-4 in a fluorescent plate reader.
(§1) For antagonist-testing, test compound was added to cells with a final concentration of 25 µM 10 min prior stimulation with αMSH (using EC80). The threshold for antagonistic activity was defined as 70% of the positive control αMSH (the EC80 value is set as 100%), and the assay was accepted as valid if the standard deviation of the αMSH signal is 10% or less.

Another assay addresses T3, MC1-R (Homo sapiens, UniProt Q01726, A105V).
T3 construct: MC1-R cDNA expression results in the corresponding protein (NP_002377.4); expressed in transfected cells
T3 sequence (Q01726 1-317 A105V): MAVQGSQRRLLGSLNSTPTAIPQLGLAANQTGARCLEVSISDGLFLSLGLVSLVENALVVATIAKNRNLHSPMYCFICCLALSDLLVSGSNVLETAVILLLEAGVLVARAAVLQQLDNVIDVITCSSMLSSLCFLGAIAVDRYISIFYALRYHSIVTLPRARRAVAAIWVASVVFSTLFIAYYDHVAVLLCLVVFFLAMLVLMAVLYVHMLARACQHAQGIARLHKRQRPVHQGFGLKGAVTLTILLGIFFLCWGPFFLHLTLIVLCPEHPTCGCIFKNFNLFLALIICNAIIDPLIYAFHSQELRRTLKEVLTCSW
Nature of the assay: Determination of compound activity on MC1-R (antagonist testing, Fluo-4 Ca2+ fluorescence in HEK293/Gα15/MC1-R cells). The note with it: 25 µM. The source says: A MC1-R expressing cell line for assessing melanogenesis modulating activity was established based on engineered HEK 293 cells, stably expressing the murine G-protein Gα15 (NM_010304.3). The promiscuous Gα15 protein couples to MC1-R and therefore links receptor stimulation to Ca^2+-signaling.
To achieve a stable expression of the target receptor this HEK293/Gα15 cell line was further stably transfected with an expression vector for the human MC1-R receptor. MC1-R cDNA expression results in the corresponding protein (NP_002377.4 with an amino acid replacement at position 105 (A105V)).
HEK293 cells stably expressing the target receptor MC1-R and the promiscuous murine Gα15 protein (HEK293/Gα15/MC1-R) were established as described above. […] Changes in internal Ca^2+-concentration are measured via the Ca^2+-sensitive fluorescent dye Fluo-4 (2-{[2-(2-{5-[bis(carboxymethyl)amino]-2-methyl-phenoxy}ethoxy)-4-(2,7-difluoro-6-hydroxy-3-oxo-3H-xanthen-9-yl)phenyl](carboxymethyl)amino}acetic acid) in a fluorescence plate reader (FLEX-Station, Molecular Devices) at an excitation wavelength of 488nm and emission of 535nm.
Recombinant HEK293/Gα15/MC1-R cells were cultured in DMEM with 10% FBS, 2mM glutamine, 1,3 mg/ml geneticin and 5 µg/ml blasticidin. Cells were seeded in 96 well, poly-D-lysine coated, black well/ clear bottom fluorescence plates in medium without antibiotics. […]

For a further assay, the target named is T4, MC5-R (Homo sapiens, UniProt P33032).
T4 construct: MC5-R cDNA expression results in MC5-R protein NP_005904.1; expressed in transfected cells; host or cells: HEK293/Gα15 cells
The assay is described as follows: Determination of compound activity on MC5-R (antagonist testing, Fluo-4 Ca2+ fluorescence in HEK293/Gα15 cells). The note with it: Figure 2; 25 µM, added 10 min prior stimulation with αMSH (EC80).
Source text: HEK293 cells stably expressing the target receptor MC5-R and the promiscuous murine Gα15 protein were established on the basis of the above-mentioned HEK293/Gα15 cell line. These cells were further transfected with an expression vector comprising the human MC5-receptor cDNA. MC5-R cDNA expression results in MC5-R protein NP_005904.1.
Stimulation of MC5-R with αMSH increases intracellular Ca^2+-concentration, inhibition of MC5-R decreases these αMSH induced Ca^2+-responses. Changes in intracellular Ca^2+-levels were measured via the Ca^2+-sensitive fluorescent dye Fluo-4 in a fluorescent plate reader.
as §1

The target of another assay is T5, MC3-R (Homo sapiens, UniProt P41968).
T5 construct: MC3-R cDNA expression results in MC3-R protein NP_063941.3; expressed in transfected cells; host or cells: HEK293/Gα15 cells
The assay is described as follows: Determination of compound activity on MC3-R (antagonist testing, Fluo-4 Ca2+ fluorescence in HEK293/Gα15 cells). The conditions noted are these: Figure 2; 25 µM, added 10 min prior stimulation with αMSH (EC80).
Source text: HEK293 cells stably expressing the target receptor MC3-R and the promiscuous murine Gα15 protein were established on basis of the above-mentioned HEK293/Gα15 cell line. These cells were further transfected with an expression vector comprising the human MC3-receptor cDNA. MC3-R cDNA expression results in MC3-R protein NP_063941.3.
Stimulation of MC3-R with αMSH increases intracellular Ca^2+-concentration, inhibition of MC3-R decreases these αMSH induced Ca^2+-responses. Changes in intracellular Ca^2+-levels were measured via the Ca^2+-sensitive fluorescent dye Fluo-4 in a fluorescent plate reader.
as §1

Assay [1] concerns MelanoDerm™ (Mattek Corp.) tissues. The assay is described as follows: MelanoDerm™ assay: melanin content in reconstructed skin tissues. The note with it: 336 h, 14 days of treatment, melanin content normalized on protein content, read-out: % inhibition relative to negative control. The method, then: Phenotypic skin lightening was assessed in reconstructed skin using MelanoDerm™ (Mattek Corp.) tissues (Figure 1).
Controls were: negative control (ultrapure water) and positive control (10 µM Ketoconazol). Test compounds were prepared in DMSO with a concentration of 10 mM and diluted in EPI-100-LLM medium (Mattek Corp.) to a final concentration of 25 µM.
MelanoDerm™ tissues were equilibrated in pre-warmed EPI-100-LLMM medium (6-Well plates, 5 ml per well) for 1 h (37°C, 5 % CO2) before treatment. Test compounds were applied systemically by addition into the culture medium. […] At the end of the treatment, tissues were analyzed via macroscopic/microscopic images and in vitro assay, for viability and for melanin content. […] Cytotoxicity was assessed using microscopic tissue images (10× magnification). Tissue viability as a result of test compound relative to negative control was determined using Cell Proliferation Reagent WST-1 (cat# 05015944001, Roche). For melanin quantitation tissues were submerged for 5 min in phosphate buffered saline (PBS, 5 ml), removed from PBS and rinsed with additional 2 ml PBS. […] All incubated samples were centrifuged at 13,000 rpm for 5 min and the optical density of the supernatant (200 µl) was measured at 490 nm. The amount of melanin (µg) from each tissue sample was determined using the melanin standard samples calibration curve. […]

T2 sequence (P32245 whole entry): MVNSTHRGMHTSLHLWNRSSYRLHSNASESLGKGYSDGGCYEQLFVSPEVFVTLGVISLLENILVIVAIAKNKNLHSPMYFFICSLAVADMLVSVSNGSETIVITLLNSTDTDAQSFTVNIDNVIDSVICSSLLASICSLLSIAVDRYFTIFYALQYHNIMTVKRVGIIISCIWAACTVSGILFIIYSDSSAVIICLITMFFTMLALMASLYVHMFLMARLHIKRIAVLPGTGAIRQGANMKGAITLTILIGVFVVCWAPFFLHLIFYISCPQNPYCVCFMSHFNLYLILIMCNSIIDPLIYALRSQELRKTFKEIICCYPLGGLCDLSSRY
T4 sequence (P33032 whole entry): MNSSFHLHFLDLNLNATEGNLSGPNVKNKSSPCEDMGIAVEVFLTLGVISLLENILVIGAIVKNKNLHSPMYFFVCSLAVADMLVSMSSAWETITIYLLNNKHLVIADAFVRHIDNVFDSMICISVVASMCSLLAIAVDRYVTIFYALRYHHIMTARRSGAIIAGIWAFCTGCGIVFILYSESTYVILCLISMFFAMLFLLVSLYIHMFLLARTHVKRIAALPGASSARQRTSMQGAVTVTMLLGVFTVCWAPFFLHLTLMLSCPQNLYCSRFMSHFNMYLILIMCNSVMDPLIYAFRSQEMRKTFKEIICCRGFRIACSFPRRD
T5 sequence (P41968 whole entry): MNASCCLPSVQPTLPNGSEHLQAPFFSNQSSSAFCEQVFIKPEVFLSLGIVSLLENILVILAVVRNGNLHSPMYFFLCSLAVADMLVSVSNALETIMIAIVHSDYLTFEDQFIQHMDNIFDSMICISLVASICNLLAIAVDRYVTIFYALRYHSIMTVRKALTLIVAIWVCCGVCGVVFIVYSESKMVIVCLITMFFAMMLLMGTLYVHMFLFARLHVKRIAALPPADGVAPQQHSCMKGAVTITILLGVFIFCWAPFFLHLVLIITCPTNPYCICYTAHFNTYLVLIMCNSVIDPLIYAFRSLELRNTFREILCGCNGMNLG
T1 sequence (Q01718 whole entry): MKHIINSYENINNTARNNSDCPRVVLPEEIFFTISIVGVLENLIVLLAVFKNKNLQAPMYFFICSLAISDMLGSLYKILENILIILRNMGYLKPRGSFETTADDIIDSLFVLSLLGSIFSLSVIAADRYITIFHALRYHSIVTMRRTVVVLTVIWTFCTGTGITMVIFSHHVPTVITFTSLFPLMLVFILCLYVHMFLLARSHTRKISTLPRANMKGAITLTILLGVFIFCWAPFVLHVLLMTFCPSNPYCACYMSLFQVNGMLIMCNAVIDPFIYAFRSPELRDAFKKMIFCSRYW
T1 sequence (Q8TCY5 whole entry partner): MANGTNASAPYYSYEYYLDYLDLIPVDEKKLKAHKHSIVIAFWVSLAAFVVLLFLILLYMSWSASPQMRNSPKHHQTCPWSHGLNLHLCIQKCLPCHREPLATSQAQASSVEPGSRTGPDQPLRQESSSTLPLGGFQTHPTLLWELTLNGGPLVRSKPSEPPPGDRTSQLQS

In general, inhibition refers to the relative decrease from the control value, in per cent. For the compound `COc1ccc(CSC(=N)N)cc1Br` [Compound (III)], the “activity of MC2R” value at MC2-R is recorded as “not significantly affected”. Also, at MC4-R, the “activity of MC4R” value was “not significantly affected”. Moreover, the “reduce MC1R activation by” value on MC1-R (added 10 min prior stimulation with αMSH (EC80 set as 100%)) is listed as 51,3%. Further, the “reduce MC1R activation to” value on MC1-R (Figure 2, αMSH (EC80) signal set as 100%, remaining activation) is recorded as “about 50%”. In addition, the “activity of MC5R” value at MC5-R is reported as “not significantly affected”. The “activity of MC3R” value on MC3-R is “not significantly affected”. Further, in assay [1] (25 µM in culture medium), the inhibition at 25 µM was -53.4%.

For `CC(=O)N1CCN(c2ccc(OCC3COC(Cn4ccnc4)(c4ccc(Cl)cc4Cl)O3)cc2)CC1` (centres unmarked) [Ketoconazol, reference compound], the inhibition at 10 µM in assay [1] (10 µM in culture medium) was -70.9%.
